Series [1] in a line: Metabolic stability test, rat liver microsomes. The class given is in vitro ADME. On the procedure: • 1. Buffer A: 1.0 L of 0.1 M monobasic Potassium Phosphate buffer containing 1.0 mM EDTA • Buffer B: 1.0 L of 0.1 M Dibasic Potassium Phosphate buffer containing 1.0 mM EDTA • Buffer C: 0.1 M Potassium Phosphate buffer, 1.0 mM EDTA, at about pH 7.4 by titrating 700 mL of Buffer B with Buffer A while monitoring with the pH meter. • 2. Reference compounds (Ketanserin) and test compounds spiking solution: • 500 µM spiking solution: add 10 μL of 10 mM DMSO stock solution into […] ACN. • 1.5 µM spiking solution in microsomes (0.75 mg/mL): add 1.5 μL of 500 µM spiking solution and 18.75 μL of 20 mg/mL liver microsomes into 479.75 μL of Buffer C on ice. • 3. Prepare NADPH stock solution (6 mM) by dissolving NADPH into buffer C. • 4. Dispense 30 μL of 1.5 µM spiking solution containing 0.75 mg/mL microsomes solution to the assay plates designated for different time points (0-, 5-, 15-, 30-, 45-min) on ice. • 5. For 0-min, add 135 μL of ACN containing IS to the wells of 0-min plate and then add 15 μL of NADPH stock solution (6 mM). • 6. Pre-incubate all other plates at 37° C. for 5 minutes. • 7. Add 15 μL of NADPH stock solution (6 mM) to the plates to start the reaction and timing. • 8. At 5-min, 15-min, 30-min, and 45-min, add 135 μL of ACN containing IS to the wells of corresponding plates, respectively, to stop the reaction. • 9. After quenching, shake the plates at the vibrator (IKA, MTS 2/4) for 10 min (600 rpm/min) and then centrifuge at 5594 g for 15 min (Thermo Multifuge×3R). • 10. Transfer 50 μL of the supernatant from each well into a 96-well sample plate containing 50 μL of ultra pure water (Millipore, ZMQS50F01) for LC/MS analysis.

Series [2] concerns TYK2/JAK1 pathway. In words: Selectivity: TYK2/JAK1 pathway, IFN-α-induced p-STAT1 in human PBMC, western blot. The class given is cell-based. The method, then: Commercial human PBMC (peripheral blood mononuclear cells) were centrifuged (400 g) for 10 min, counted and planted on 6-well plates (5 million/well). Then, the compounds to be tested were added for 2 hours and IFN-α (100 ng/mL) was added to stimulate cells for 15 minutes. Protein lysate was used to lysate cells, and BCA kit was used for protein quantification. Finally, p-STAT1/STAT1, P-TYK2/TYK2 and internal reference protein B-Actin were detected by Western blot.

The subject of series [3] is JAK1/JAK2 pathway. In words: Selectivity: JAK1/JAK2 pathway, IFN-γ-induced p-STAT1 in HT-29 cells, western blot. The settings on record: IFN-γ 100 ng/mL. The format is cell-based. The method, then: HT-29 cells were digested by trypsin and suspended in DMEM medium and counted. The tested compounds were added into 6 well plates (400 000/per well) for 2 hours, then IFN-γ (100 ng/mL) was added to stimulate cells for 30 minutes. The cells were collected and lysed with protein lysate. The protein was quantitatively tested by BCA kit. Finally, p-STAT1/STAT1 and internal reference protein β-actin were detected by western blot.

In series [4] the test system is JAK1/JAK3 pathway. In words: Selectivity: JAK1/JAK3 pathway, IL-2-induced p-STAT5 in human PBMC, western blot. The format is cell-based. The settings on record: IL-2 100 ng/mL. On the procedure: Commercial human PBMC (peripheral blood mononuclear cells) were centrifuged (400 g) for 10 min, counted and seeded into 6-well plates (5 million/well). The compounds to be tested were added for 2 hours and then IL-2 (100 ng/mL) was added to stimulate cells for 15 minutes. Finally, p-STAT5/STAT5 and internal reference protein β-actin were detected by Western blot.

Regarding `CCC(=O)c1cnc(NC(=O)C2CC2)cc1Nc1cccc(-c2cc(P(C)(C)=O)n(C)n2)c1OC` [Compound B2, N-(4-((3-(5-(dimethylphosphoryl)-1-methyl-1H-pyrazol-3-yl)-2-methoxyphenyl)amino)-5-propionylpyridin-2-yl)cyclopropanecarboxamide], in series [1] (conclusion from Table 5), the “stability in rat liver microsomes (in words)” value is “good stability”. Also, in series [1] (pH 7.4, rat liver microsomes, read-out: T1/2 RLM), the half-life at 1 μM worked out at 1.68 h. Besides, the “CL RLM” value in series [1] (rat liver microsomes) was 24.6 mL/min/kg.
As for `CCC(=O)c1cnc(NC(=O)C2CC2)cc1Nc1cccc(-c2cc(P(=O)(C3CC3)C3CC3)n(C)n2)c1OC` [Compound B37, N-(4-((3-(5-(dicyclopropylphosphoryl)-1-methyl-1H-pyrazol-3-yl)-2-methoxyphenyl)amino)-5-propionylpyridin-2-yl)cyclopropanecarboxamide], the “inhibition of TYK2/JAK1 pathway compared with BMS986165” value in series [2] (IFN-α) is on record as “better inhibitory activity than BMS986165”. Also, the “inhibition of downstream STAT1 phosphorylation induced by IFN-α” value in series [2] (IFN-α 100 ng/mL, western blot) was “effectively inhibit”. For the same molecule, the “effect on downstream STAT1 phosphorylation induced by IFN-γ” value in series [3] is on record as “no effect”. In addition, the “effect on IL-2-induced downstream STAT5 phosphorylation” value in series [4] is “no effect”.
